From patent US20120316203A1, “Compositions and Methods for Inhibition of Cancers” (THE OHIO STATE UNIVERSITY RESEARCH FOUNDATION, priority 2009, published 2012)

Key:
[1] = system: USP2a, ubiquitinated FAS and FAK in A2780 and SKOV3 cells; assay: Ubiquitination of FAS/FAK and USP2a level; assay type: cell-based, human
Method: FIG. 15: HO-3867 downregulates FAS and FAK levels via proteasome pathways. To catch any ubiquitinated proteins in the cell lysates, agarose beads coated with domains having affinity to ubiquitin were incubated in the lysates at 4° C. for 2 hours. After washing the beads, the ubiquitinated proteins were subjected to immunoblot for FAS and FAK and blotted by the ubiquitin antibody. A predominant ubiquitination of FAS and FAK is seen in the HO-3867-treated A2780 and SKOV3 cells under proteasomal inhibition using MG 132 (50 μM).
The intracellular amount of rapid-turnover proteins, such as FAS and FAK, is tightly regulated by the ubiquitin-dependent proteolytic pathway. The fast and significant decrease in the FAS and FAK expressions observed in the HO-3867-treated cells prompted us to check any involvement of ubiquitin-dependent degradation mechanism.

[2] = system: A2780 and other cancer cells; assay: Metabolic conversion to nitroxide in cancer cells (EPR); assay type: in vitro ADME, human
From the text: The N-hydroxypyrroline (—NOH) moiety is capable of undergoing a reversible one-electron oxidation to its nitroxide form (—NO; FIG. 9A), which is paramagnetic and detectable by EPR spectroscopy.

[3] = system: A2780 cells; assay: Cell-cycle analysis by flow cytometry; assay type: cell-based, human; conditions: 6, 12, or 24 hours, versus nontreated control
Method: Cells were treated with HO-3867 (10 μmol/L) for 24 hours, trypsinized, washed in PBS, and fixed in an ice-cold 75% ethanol/PBS solution. The DNA was labeled with propidium iodide. Cells were sorted by flow cytometry and cell cycle profiles were determined using ModFit LT software (Becton Dickinson).
We next examined whether the growth inhibition of A2780 cells by HO-3867 was caused by cell cycle arrest. Cells were treated with HO-3867 for 6, 12, or 24 hours; fixed; and cell cycle populations were determined by flow cytometry.

[4] = system: hOSE cells, HSMC, and HAEC; assay: Cytotoxicity of DAPs to noncancerous cells (MTT); assay type: cell-based, human
Method: (§1) Cell viability was determined by a colorimetric assay using MTT. In the mitochondria of living cells, yellow MTT undergoes a reductive conversion to formazan, giving a purple color. Cells, grown to […] confluence in 75-mm flasks, were trypsinized, counted, seeded in 96-well plates with an average population of 7000 cells/well, incubated overnight, and then treated with the DAPs (H-4073, HO-3867, H4318, or HO-4200; […]) for 24 h. All experiments were done using eight replicates and repeated at least three times. Cell viability was expressed as the percentage of MIT viability of untreated cells.

[5] = system: A2780, A2780R, MCF-7, HCT-116, PC-3, HepG2, A549, and SCC4 human cancer cell lines; assay: Cytotoxicity of DAPs to cancer cells (MTT); assay type: cell-based; conditions: 10 μM, 24 h
Method: as §1

[6] = biological target: T1, FAS in A2780 and SKOV3 cells (Homo sapiens, UniProt P49327); assay: Fatty acid synthase activity assay; assay type: cell-based; conditions: 10 μM, 12 or 24 h, both cell lines
T1 construct: endogenous in cells; host or cells: A2780 and SKOV3 human ovarian cancer cells
Method: The FAS activity was determined spectrophotometrically at 37° C. in particle-free supernatants by measuring the decrease of absorption at 340 nm due to oxidation of NADPH.

[7] = system: HSMC; assay: Intracellular ROS by DCF fluorescence, HSMC; assay type: cell-based, human; conditions: 10 μM, 12 h
Method: The ROS levels in cells treated with DAPs were determined using H2DCF-DA, a membrane-permeative fluorogenic probe. The acetate and acetoxymethyl ester groups of this probe are enzymatically cleaved inside living cells. The probe can then be oxidized by intracellular oxidants (ROS) to give a product, DCF, which emits a strong, green fluorescence (λex=504 nm; λem=529 nm). The fluorescence intensity is proportional to the level of cellular oxidants. […] The cells were further incubated in the dark for 20 min and washed with protein-free medium, and then fluorescence images were immediately captured with a Nikon Eclipse TE2000-U camera system using excitation/emission at 495/520 nm. The captured images were then analyzed using MetaMorph image analysis software.

[8] = system: A2780 cells; assay: Cell proliferation by clonogenic assay; assay type: cell-based, human; conditions: 24 hours treatment, 7 days growth
Method: Cell survival was assessed by clonogenic assay. Cells at […] confluence were trypsinized, rinsed, seeded onto 60-mm dishes (5×10^4 cells per dish), grown for 24 hours at 37° C., and treated afterward with H-4073 or HO-3867 for 24 hours. Nontreated cells served as controls. After treatment, the cells were washed twice with PBS, trypsinized, counted, and plated in 60-mm dishes in triplicate and incubated for an additional 7 days. The colonies were then stained with crystal violet (in ethyl alcohol) and counted using an automated colony counter (ColCount, Oxford Optronix). Each experiment was repeated at least five times.

[9] = system: Bcl-xL, Bcl-2, survivin, VEGF, and cyclin D1 in A2780 cells; assay: Western blot of STAT3 target proteins; assay type: cell-based, human; conditions: 10 and 20 μmol/L, 24-hour exposure
Method: Equal volumes of DMSO (0.1% v/v) were present in each treatment. Following treatment, the cell lysates were prepared in non-denaturing lysis buffer containing 10 mmol/L Tris-HCl (pH 7.4), 150 mmol/L NaCl, 1% Triton X-100, 1 mmol/L EDTA, 1 mmol/L EGTA, 0.3 mmol/L phenylmethyl-sulfonyl fluoride, 0.2 mmol/L sodium orthovanadate, 0.5% NP40, 1 μg/mL aprotinin, and 1 μg/mL leupetin. The lysates were centrifuged at 10,000×g for 20 minutes at 4° C. and the supernatant was separated. The protein concentration in the lysates was determined using a Pierce detergent-compatible protein assay kit. For Western blotting, 25 to 50 μg of protein lysate per sample were denatured in 2×SDS-PAGE sample buffer and subjected to SDS-PAGE on a 10% tris-glycine gel. The separated proteins were transferred to a polyvinylidene fluoride membrane and were blocked with 5% nonfat milk powder (w/v) in TBST (10 mmol/L Tris, 10 mmol/L NaCl, 0.1% Tween 20) for 1 hour at room temperature or overnight at 4° C. The membranes were then incubated with the primary antibodies. The bound antibodies were detected with horseradish peroxidase-labeled sheep anti-mouse IgG or horseradish peroxidase-labeled donkey anti-rabbit IgG using an enhanced chemiluminescence detection system (ECL Advanced kit). Protein expressions were determined using the Image Gauge v. 3.45 software. […]

T1 sequence (P49327 whole entry): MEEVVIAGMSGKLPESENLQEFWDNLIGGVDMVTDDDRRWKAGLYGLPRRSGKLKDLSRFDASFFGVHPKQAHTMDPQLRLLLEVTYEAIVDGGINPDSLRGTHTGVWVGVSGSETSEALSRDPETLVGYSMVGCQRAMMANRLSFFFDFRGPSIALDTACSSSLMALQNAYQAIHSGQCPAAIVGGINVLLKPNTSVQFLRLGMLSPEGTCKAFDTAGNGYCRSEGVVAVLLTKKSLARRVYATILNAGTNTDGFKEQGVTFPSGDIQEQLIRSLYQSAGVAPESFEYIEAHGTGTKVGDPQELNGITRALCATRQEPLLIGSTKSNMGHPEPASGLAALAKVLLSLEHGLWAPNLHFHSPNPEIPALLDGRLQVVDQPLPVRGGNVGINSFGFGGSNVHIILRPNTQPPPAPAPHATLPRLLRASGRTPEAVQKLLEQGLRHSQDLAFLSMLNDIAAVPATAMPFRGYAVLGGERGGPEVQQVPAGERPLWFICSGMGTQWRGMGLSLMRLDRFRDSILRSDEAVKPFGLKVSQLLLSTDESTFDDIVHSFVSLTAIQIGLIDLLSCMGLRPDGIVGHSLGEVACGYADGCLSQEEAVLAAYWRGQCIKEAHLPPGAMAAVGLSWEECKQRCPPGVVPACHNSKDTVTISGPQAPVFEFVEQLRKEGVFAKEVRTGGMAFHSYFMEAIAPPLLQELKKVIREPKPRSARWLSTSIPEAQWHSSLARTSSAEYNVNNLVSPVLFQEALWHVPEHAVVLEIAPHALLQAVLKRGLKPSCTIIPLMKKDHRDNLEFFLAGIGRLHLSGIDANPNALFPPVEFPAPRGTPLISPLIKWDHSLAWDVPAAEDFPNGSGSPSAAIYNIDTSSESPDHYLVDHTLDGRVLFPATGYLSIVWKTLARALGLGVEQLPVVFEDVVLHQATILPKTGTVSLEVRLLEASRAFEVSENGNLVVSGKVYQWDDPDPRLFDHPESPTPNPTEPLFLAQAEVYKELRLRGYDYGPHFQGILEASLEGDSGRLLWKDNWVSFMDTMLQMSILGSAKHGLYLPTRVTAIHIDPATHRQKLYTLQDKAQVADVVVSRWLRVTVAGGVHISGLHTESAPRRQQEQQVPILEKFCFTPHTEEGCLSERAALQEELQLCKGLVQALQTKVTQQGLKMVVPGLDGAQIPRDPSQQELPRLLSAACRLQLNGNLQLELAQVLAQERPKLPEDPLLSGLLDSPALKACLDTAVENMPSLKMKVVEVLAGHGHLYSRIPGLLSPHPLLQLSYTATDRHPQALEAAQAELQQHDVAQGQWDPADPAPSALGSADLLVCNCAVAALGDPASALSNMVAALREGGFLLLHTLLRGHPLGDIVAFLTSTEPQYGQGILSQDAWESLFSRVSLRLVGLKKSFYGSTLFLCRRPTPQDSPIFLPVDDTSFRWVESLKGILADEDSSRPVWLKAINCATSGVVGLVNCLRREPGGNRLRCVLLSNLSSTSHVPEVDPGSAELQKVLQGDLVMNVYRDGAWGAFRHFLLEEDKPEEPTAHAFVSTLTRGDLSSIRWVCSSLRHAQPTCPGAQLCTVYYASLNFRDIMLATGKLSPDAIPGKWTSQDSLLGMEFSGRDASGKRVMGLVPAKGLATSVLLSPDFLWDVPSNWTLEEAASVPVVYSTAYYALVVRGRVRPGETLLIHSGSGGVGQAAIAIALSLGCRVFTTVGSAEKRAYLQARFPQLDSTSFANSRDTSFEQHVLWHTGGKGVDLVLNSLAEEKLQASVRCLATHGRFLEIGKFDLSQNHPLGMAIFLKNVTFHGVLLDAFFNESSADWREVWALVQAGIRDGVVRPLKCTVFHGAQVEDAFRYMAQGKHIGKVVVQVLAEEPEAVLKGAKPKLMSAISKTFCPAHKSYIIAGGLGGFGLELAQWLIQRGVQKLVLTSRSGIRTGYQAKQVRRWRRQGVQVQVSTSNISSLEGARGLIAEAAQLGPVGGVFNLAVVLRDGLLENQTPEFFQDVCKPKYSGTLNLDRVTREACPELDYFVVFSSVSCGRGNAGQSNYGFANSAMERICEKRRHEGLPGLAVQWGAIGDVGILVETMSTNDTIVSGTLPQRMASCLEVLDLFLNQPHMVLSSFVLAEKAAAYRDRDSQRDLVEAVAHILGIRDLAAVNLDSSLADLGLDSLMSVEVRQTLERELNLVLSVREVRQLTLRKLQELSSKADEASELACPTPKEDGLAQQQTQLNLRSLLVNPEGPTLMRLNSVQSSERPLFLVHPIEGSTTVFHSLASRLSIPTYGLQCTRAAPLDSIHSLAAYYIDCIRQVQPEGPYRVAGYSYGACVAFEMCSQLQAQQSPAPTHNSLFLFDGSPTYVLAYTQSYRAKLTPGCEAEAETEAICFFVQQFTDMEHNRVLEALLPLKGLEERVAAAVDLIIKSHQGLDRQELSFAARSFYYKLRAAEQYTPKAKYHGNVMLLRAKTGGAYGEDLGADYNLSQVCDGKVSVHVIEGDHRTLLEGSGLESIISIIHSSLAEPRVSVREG

## CC1(C)C=C(CN2C/C(=C\c3ccc(F)cc3)C(=O)/C(=C/c3ccc(F)cc3)C2)C(C)(C)N1O [HO-3867, 1-[(1-oxyl-2,2,5,5-tetramethyl-2,5-dihydro-1H-pyrrol-3-yl)methyl]-(3E,5E)-3,5-bis(4-fluorobenzylidene)piperidin-4-one]
[1]
  USP2a level: clearly downregulated
[1]; co-incubation with MG-132
  polyubiquitination on FAS and FAK: enhanced polyubiquitination
[2]
  EPR signal intensity of the nitroxide metabolite in A2780 cells compared to PBS: fivefold increase
[2]; 37° C., EPR
  EPR spectrum (nitroxide signal) after incubation with A2780 cells: characteristic triplet feature
[3]
  percentages of the cell population in the G2-M and sub-G1 phases: significantly higher
[4]; 10 NM, 24-h incubation
  cell viability of noncancerous (healthy) human cell lines: significantly less toxic
[4]; same dose for both compounds
  viability of hOSE cells: very little effect
[5]
  cell viability of human cancer cell lines: substantial loss of cell viability
[6]
  FAS activity: significantly reduced
[7]
  amounts of ROS in HSMC compared to A2780 cells: significantly lower amounts of ROS
  intracellular ROS generation (DCF fluorescence) in HSMC: not significantly different from that of the untreated cells
[8]
  number of colonies (colony-forming ability): dose-dependent reduction in the number of colonies
[9]
  Bcl-xL, Bcl-2, survivin, and VEGF levels: clear reduction
  cyclin D1 level: no significant change
